Converted amounts (≈) assume the structure as drawn.
Assays:
60 kinase assays = experiment: Kinase and biochemical assay screens (Upstate panel); settings: concentrations of less than 1 μg/ml; 1 μM in 60 kinase assays
Source text: In an effort to understand how these compounds might be acting at the cellular and molecular level, several screens of drug activity were initiated. The first 2 screens were designed to test the activity of drug on certain binding events and the activity of a variety of enzymes in vitro (FIGS. 14 and 15).

[1] = tested on: rat basophilic leukemia (RBL) cells; experiment: Degranulation of RBL cells; assay type: cell-based; settings: induced with PMA/ionomycin or IgE-antigen complexes, not shown
Source text: The proposed mechanism of the AVP compounds on intracellular protein transit also allows certain predictions as to other effects and non-effects that these compounds might share. For example, inhibition of vesicle fusion or budding between the ER and golgi should not affect exocytosis as would be expected of a post-golgi active compound such as Monensin. AVP 893 has minimal effects on the expression of proteins involved in exocytosis, particularly VAMP, SNAP23 (non-neuronal cells), and SNAP25 (neuronal cells).

[2] = tested on: T cells from mouse spleen and human PBL; experiment: T cell cytokine responses in vitro (Luminex beads); assay type: cell-based
Source text: These series of compounds were initially identified on the basis of their IgE-blocking activity in an ex vivo IgE response protocol (FIG. 2), and the biological activity of all analogs are characterized on the basis of their activity in this assay. Activity in the ex vivo assay is corroborated in the in vitro assay of B cell response to 1L-4/anti-CD40 Ab-stimulated IgE in human PBL (FIG. 3) using standard procedures, and mouse splenic B cells (not shown). Drug action on T cells was shown by testing T cell cytokine responses to various stimuli in vitro. The response of a cadre of cytokines and chemokines to several alternative stimuli was tested in T cells from both mouse spleen and human PBL. T cells were isolated from murine spleen and cultured for 16 hours in the presence of stimulus+/−AVP 13358. Supernatants were quantified for cytokines using Luminex beads. All cytokines achieved levels of at least 200 pg/ml and 10-fold higher than background (FIG. 4). T cells were isolated from donor PBL and cultured for 16-36 hours in the presence of Phytohemaglutin (PHA, 5 μg/ml) and ConA (5 μg/ml)+/−AVP 13358. Supernatants were quantified for cytokines using Luminex beads (FIG. 5). […] Total protein was assessed by the SRB assay, as adopted for many of the proliferation experiments outline below.

[3] = tested on: CD23 and the IL-4 receptor on murine B cells and human monocytes; experiment: Induction of CD23 and IL-4 receptor expression; assay type: cell-based, mouse; settings: murine B cells and human monocytes in vitro
Mannosidase II = Mannosidase II immunocytochemistry; assay type: cell-based; settings: 1 hr of treatment, immunocytochemistry
Experimental: GS15, GS28, GPP130, and Mannosidase II, sparing the golgi structural protein GM-130 and having little effect on the Rab GTPase Rab6. Furthermore, these affects were most pronounced following overnight (16-20 hr) incubations with AVP 893, although some affects at early time points were seen. These conclusions were drawn from the western blot analysis (FIG. 29), as well as from the immunocytochemical studies (FIGS. 30-31).
Additional evidence that AVP 893 has unique activity against resident golgi proteins (e.g. Mannosidase II), was found using both shorter durations of drug exposure and immunocytochemistry instead of western blot analysis (FIG. 43).

[4] = tested on: tumor cell lines (NCI 60-cell screening panel); settings: NCI 60-cell screen, data from the NCI database; cited from earlier work
GS28 = GS28 expression by Western blotting; assay type: cell-based; settings: MOLT4, Hs578T, H-460, overnight
Experimental: The culture medium was removed by vacuuming (for attached cells) or by low speed centrifugation (for suspension cells) for 5-7 minutes at room temperature. The cells were wasedh twith PBS, spun at 1200 rpm and the cell pellets were kept on ice. 300 μl/2.0×10^7 cells of ice cold lysis buffer was added with freshly added protease inhibitors. Cell pellets were gently resuspended and incubated on ice for at least 30 min, vortexed a few times during incubation. Cell lysate was spun at 14,000 rpm for 2-5 min at 4° C. The supernatant was transferred to a new microfuge tube and the pellet was discarded. An aliquot of sample was mixed with an equal volume of 2× sample buffer (InVitrogen), and stored at −80° C. Protein concentration was determined by using “BCA protein assay reagent kit” from Pierce.
Protein samples (in sample buffer) were boiled for 1-3 minutes and put on ice. Same amount of protein were loaded on the NuPage gel (InVitrogen). After the electrophoresis was complete, proteins were transferred from the gel to a PVDF membrane using the electro-blotting apparatus from InVitrogen; the voltage was set to 25 for 2-3 hr. Block non-specific binding by incubating membrane with 5% milk (in PBS, 0.1% tween 20) for at least 30 min at room temperature or overnight at 4° C. The blocked membrane was incubated with primary antibody (See TABLE 2) diluted in 5% milk for 1 hour at room temperature. Optimal antibody dilution depends on the company, the amount of protein. Dilutions of 1:1000 were generally used for the primary antibodies from Santa Cruz. The membrane was washed with PBS, 0.1% tween 3-4 times 5 mins. The membrane was incubated for 30-60 minutes at room temperature with horseradish peroxidase (HRP) conjugated secondary antibody diluted in 5% milk. We usually used 1:4000 dilution for the secondary antibody from Santa Cruz. The membrane was washed 3-4 times with PBS, 0.1% tween, each time 15 minutes. The detection solutions A and B were mixed in a ratio 40:1 and Pipetted onto the membrane, and incubated for 5 min at RT. A sheet of Hyper film ECL was placed on the top of the membrane in the dark and exposed for 1 min, or adjust accordingly.
To further examine the putative protein trafficking effects of AVP 893, other proteins in this pathway were tested in vitro in B16 and other cell lines. The effect of AVP 893 on cellular proteins was corroborated in B16 cells and extended to include a time-course (FIG. 17). B16-F10 tumor cells were seeded in T75 flasks at 20% confluence and cultured overnight. AVP 893 (100 ng/ml) was added to several flasks and one flask of cells was harvested at several time points following addition of compound. Lysates were prepared, separated by electrophoresis, and probed with antibody as described above in the general Western blotting protocol. Drug effects on GS28 and nicastrin paralleled each other and were progressively stronger with longer drug incubations. […] Other cell lines were tested for their expression of GS28 and nicastrin and found to respond similarly to drug, although quantitative differences were evident. Tumor cell lines found to respond similarly to AVP 893 include CAK1, SF295, PC3, MOLT4, Neuro2a, and RBL (FIGS. 18, 19, and 20). For the experiment shown in FIG. 18, LOX, CAKI, and 3T3 cell lines were treated as described for FIG. 17. For the results shown in FIG. 19, SF295, PC3, MOLT-4, and Neuro2a cells were treated as described for FIG. 17. For the results shown in FIG. 20, LOX, 3T3, and RBL cell lines were treated with varying concentrations of AVP 893 as described for FIG. 17. The effects on LOX cells were less evident. […] Levels of calnexin, a resident ER protein used as a control, were unchanged in drug-treated cells.

HCC 1806 = experiment: Inhibition of tumor cell proliferation in vitro (SRB total protein); assay type: cell-based; settings: in-house head-to-head, about 72 hours
Experimental: (§1) For a typical screening experiment, cells are inoculated into 96 well microtiter plates in 100 μl at plating densities ranging from 5,000 to 40,000 cells/well depending on the doubling time of individual cell lines. After cell inoculation, the microtiter plates are incubated at 37° C., 5% or 10% CO2—depending on the cell line and media—95% air and 100% relative humidity for 24 h prior to addition of experimental drugs. After 24 h, two plates of each cell line are fixed in situ with TCA, to represent a measurement of the cell population for each cell line at the time of drug addition. Following drug addition, the plates are incubated for an additional 48 h at 37° C., 5%/10% CO2, 95% air, and 100% relative humidity. For adherent cells, the assay is terminated by the addition of cold TCA. Cells are fixed in situ by the gentle addition of 50 μl of cold 50% (w/v) TCA (final concentration, 10% TCA) and incubated for 60 minutes at 4° C. The supernatant is discarded, and the plates are washed five times with tap water and air-dried. Sulforhodamine B (SRB) solution (10011) at 0.4% (w/v) in 1% acetic acid is added to each well, and plates are incubated for 10 minutes at room temperature. After staining, unbound dye is removed by washing five times with 1% acetic acid and the plates are air-dried. Bound stain is subsequently solubilized with 10 mM trizma base, and the absorbance is read on an automated plate reader at a wavelength of 515 nm. For suspension cells, the methodology is the same except that the assay is terminated by fixing settled cells at the bottom of the wells by gently adding 50 μl of 80% TCA (final concentration, 16% TCA). Using the seven absorbance measurements [time zero, control growth, and test growth in the presence of drug at the five concentration levels], the percentage growth is calculated at each of the drug concentrations levels.
(§2) Brefeldin A was tested by the NCI for inhibition of tumor cell proliferation in the 60-cell screen. The NCI 60-cell screen was performed essentially as described for FIG. 9. Data available from the NCI database for Brefeldin A was compared with more recent AVP 893 data. […] Several tumor cell lines were cultured in the presence of either AVP 893 or Brefeldin A for about 72 hours before assessing proliferation response by measuring total protein (SRB), as described for FIG. 9. The results of the head-to-head comparisons performed in-house also show substantial variation in the relative proliferative responses of cells to Brefeldin A and AVP 893 in vitro (TABLE 3).

NCI H-460 = experiment: as above; assay type: cell-based; settings: in-house head-to-head, about 72 hours, SRB
Experimental: as §1, §2

Hs578T = experiment: as above; assay type: cell-based; settings: in-house head-to-head, about 72 hours, SRB
Experimental: as §1, §2

MOLT-4 = experiment: as above; assay type: cell-based; settings: in-house head-to-head, about 72 hours, SRB
Experimental: as §1, §2

Row | Structure (SMILES) | activity in kinase and biochemical assays (60 kinase assays) | degranulation [1] | IL-1 levels ([2]; in vitro) | levels of cytokines including IL-4, IL-5, IL-13 ([2]; stimulated T cells, 16-36 hours) | induction of CD23 and IL-4 receptor [3] | Mannosidase II staining pattern (Mannosidase II) | concentrations inhibiting proliferation of virtually all cells [4] [nM] | GS28 expression (GS28) | IC50 (HCC 1806) [µg/mL] | IC50 (NCI H-460) [µg/mL] | IC50 (Hs578T) [µg/mL] | IC50 (MOLT-4) [µg/mL]
1 | O=C(Nc1ccccn1)c1ccc2[nH]c(-c3ccc(NC(=O)C45C[C@H]6C[C@@H](C4)C[C@@H](C5)C6)cc3)nc2c1 [AVP 13358] | no drug activity was observed | does not inhibit degranulation | does not affect IL-1 levels | potently suppressed the levels of most cytokines | potently blocked the induction of these receptors | – | – | – | – | – | – | –
2 | C[C@H]1CCC/C=C/[C@@H]2C[C@H](O)C[C@H]2[C@H](O)/C=C/C(=O)O1 [Brefeldin A, reference compound] | – | – | – | – | – | completely dispersed | 10 to 100 | variable effects | 0.03 (≈ 0.107 µM) | 0.005 (≈ 0.0178 µM) | 0.1 (≈ 0.357 µM) | 0.003 (≈ 0.0107 µM)

From patent US20050256179A1, “Selective pharmacologic inhibition of protein trafficking and related methods of treating human diseases” (priority 2003, published 2005)
